IC50 data for 25 compounds are collected here from patent US9604998B2, “Inhibitors of the renal outer medullary potassium channel” (MERCK SHARP & DOHME CORP., priority 2013, dated 2017).

pIC50: −log10 of the molar value. Counter-ions that a name gives are not always drawn. Like-named read-outs stand apart in the source and are kept apart here.

One assay deals with hROMK (hKir1.1) (Homo sapiens (Human), UniProt P48048). Description: Thallium Flux Assay (ROMK channel functional thallium flux, FLIPR-Tetra). Format: cell-based. The protocol: HEK293 cells stably expressing hROMK (hKir1.1) were grown at 37° C. in a 10% CO2 humidified incubator in complete growth media: Dulbecco's Modified Eagle Medium supplemented with non-essential amino acids, Penicillin/Streptomycin/Glutamine, G418 and FBS. At >80% confluency, aspirate the media from the flask and rinse with 10 mL Calcium/Magnesium-free PBS. […] To dislodge the cell, gently bang the side of the flask with your hand. Triturate the cells completely and then transfer the cells to 25 mL complete media. Centrifuge at 1,500 rpm for 6 min followed by resuspension in complete growth media and determine cell concentration.
Compound Buffer (per microplate): 20 mL Probenecid/Assay Buffer; 0.3 mM ouabain (10 mM ouabain in water can be stored in amber bottle/aluminum foil at room temperature); Test compound
Stimulant Buffer (prepared at 5× final concentration in 1× FluxOR™ Chloride-Free Buffer): 7.5 mM Thallium sulfate and […] (to give a final assay concentration of 3 mM Thallium/0.3 mM Potassium). Store at 4° C. when not in use. If kept sterile, this solution is good for months.
The ROMK channel functional thallium flux assay is performed in 384 wells, using the FLIPR-Tetra instrument. HEK-hKir1.1 cells are seeded in Poly-D-Lysine microplates and kept in a 37° C.-10% CO2 incubator overnight. On the day of the experiment, the growth media is replaced with the FluxOR™ reagent loading buffer and incubated, protected from light, at ambient temperature (23-25° C.) for 90 min. The loading buffer is replaced with assay buffer±test compound followed by 30 min incubation at ambient temperature, where the Thallium/Potassium stimulant is added to the microplate.
1. Seed HEK-hKir1.1 cells (50 μl at 20,000 cells/well) in 384-well PDL coated Microplates
2. Allow cells to adhere overnight in humidified 37° C./10% CO2 incubator
3. Completely remove cell growth media from microplate and replace with 25 μl loading buffer
4. Incubate Microplate at room temperature, protected form light, for 90 min
5. Remove loading buffer and replace with 25 μl 1× Assay Buffer±test compound.
6. Incubate microplate at room temperature, protected from light, for 30 min
7. […] Excitation=400 nm, Emission=460 & 580 nm. Collect data for ˜10 min.
The fluorescence intensity of wells containing 3 μM of a standard control ROMK inhibitor of the present invention is used to define the ROMK-sensitive component of thallium flux. Fluorescence in the presence of test compounds is normalized to control values to provide % fluorescence change.

The next assay concerns the target Kir1.1 (ROMK1) (Homo sapiens (Human), UniProt P48048). Description: Electrophysiology Assay (whole cell voltage clamp, IonWorks Quattro). Format: cell-based. The following applies: block during voltage step to 0 mV. On the procedure: Chinese hamster ovary cells stably expressing Kir1.1 channels were maintained in T-75 flasks in cell culture media in a humidified 10% CO2 incubator at 37° C. Prior to an experiment, Kir1.1 expression was induced by overnight incubation with 1 mM sodium butyrate. […] After centrifugation, the cell pellet was resuspended in approximately 4.0 mL of bath solution and placed in the IonWorks instrument. The intracellular solution consisted of (in mM): 80 K gluconate, 40 KCl, 20 KF, 3.2 MgCl2, 3 EGTA, 5 Hepes, pH 7.4. Electrical access to the cytoplasm was achieved by perforation in 0.13 mg/mL amphotericin B for 4 min. […] Voltage protocols and current recordings were performed using the IonWorks HT software/hardware system. Currents were sampled at 1 kHz. No correction for liquid junction potentials was used. The test pulse, consisting of a 100 ms step to 0 mV from a holding potential of −70 mV, followed by a 100 ms voltage ramp from −70 mV to +70 mV, was applied before and after a 6 min compound incubation period. Test compounds were prepared by diluting DMSO stock solutions into the bath solution at 3× the final concentration and placed in the instrument in 96-well polypropylene plates. Current amplitudes were measured using the IonWorks software.
On the technique in general: Patch clamp records ionic current or voltage across a cell membrane.

Setting [1] is: HEK293 cells stably expressing hROMK (hKir1.1), read-out: Thallium Flux IC50.
Setting [2] is: Chinese hamster ovary cells stably expressing Kir1.1, read-out: Electrophysiology IC50.
Setting [3] is: Thallium Flux IC50, HEK293 cells stably expressing hROMK (hKir1.1).
[4] abbreviates: Electrophysiology IC50, Chinese hamster ovary cells stably expressing Kir1.1.

Chain of Kir1.1 (ROMK1) (P48048 whole entry, species assumed): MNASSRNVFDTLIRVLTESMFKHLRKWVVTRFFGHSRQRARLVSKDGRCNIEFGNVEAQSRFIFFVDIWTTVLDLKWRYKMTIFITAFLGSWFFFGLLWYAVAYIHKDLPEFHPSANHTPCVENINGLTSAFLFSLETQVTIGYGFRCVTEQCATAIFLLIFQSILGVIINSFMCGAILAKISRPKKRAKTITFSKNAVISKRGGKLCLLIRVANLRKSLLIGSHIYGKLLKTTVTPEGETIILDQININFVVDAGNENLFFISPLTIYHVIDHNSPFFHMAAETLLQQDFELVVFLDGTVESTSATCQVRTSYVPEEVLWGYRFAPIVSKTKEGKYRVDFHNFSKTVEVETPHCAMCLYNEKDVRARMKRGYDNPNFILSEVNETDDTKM
Chain of hROMK (hKir1.1) (P48048 whole entry): as the sequence (P48048 whole entry, species assumed) above

The term pIC50 denotes the IC50 on a negative log10 scale, so that one unit is a factor of ten. With `COc1cc(CCN2CCN3C[C@@H](c4ccc5c(c4C)COC5=O)OC[C@@H]3C2)ccc1C#N` [Example 56, 2-methoxy-4-(2-((3R,9aS)-3-(4-methyl-1-oxo-1,3-dihydroisobenzofuran-5-yl)hexahydropyrazino[2,1-c][1,4]oxazin-8(1H)-yl)ethyl)benzonitrile], the pIC50 at hROMK (hKir1.1) (setting [1]) was 7.40; at Kir1.1 (ROMK1) (setting [2]) it was 7.15.
Turning to `Cc1c([C@@H]2CN3CCN(CCc4ccc5c(c4)CC(C)OC5=O)C[C@H]3CO2)ccc2c1COC2=O` (some centres unmarked) [Example 81], the pIC50 on hROMK (hKir1.1) (setting [1]) was 7.05; at Kir1.1 (ROMK1) (setting [2]) it was 6.92.
In the case of `Cc1cc2c(cc1C(O)CN1CCN3C[C@H](c4ccc(F)c(C#N)c4C)OC[C@@H]3C1)COC2=O` (single isomer, unassigned) [Example 26, trifluoroacetate], the pIC50 against hROMK (hKir1.1) (setting [3]) is 6.60; against Kir1.1 (ROMK1) (setting [4]), 6.66.
On to `COc1cc(CCN2CCN3C[C@@H](c4ccc5c(c4C)COC5=O)OC[C@@H]3C2)cc(F)c1C#N` [Example 99], for which the pIC50 was 6.59 at hROMK (hKir1.1) (setting [1]) and 6.68 at Kir1.1 (ROMK1) (setting [2]).
In the same order, the values of `Cc1c([C@@H]2CN3CCN(CC(O)c4ccc5c(c4)C[C@@H](C)OC5=O)C[C@H]3CO2)ccc2c1COC2=O` (single isomer, unassigned) [Example 46] are 6.55 and 6.96.
In the same order, the values of `Cc1c([C@H]2CN3CCN(CC(C)c4ccc5c(c4)COC5=O)C[C@H]3CO2)ccc2c1COC2=O` (some centres unmarked) [Example 66] are 6.77 and 6.85.
In the same order, the values of `Cc1c(CCN2CCN3C[C@@H](c4ccc5c(c4)COC5=O)OC[C@@H]3C2)ccc2c1COC2=O` [Example 69] are 7.22 and 7.70.
Consider `Cc1c(CCN2CCN3C[C@@H](c4ccc(F)c(C#N)c4)OC[C@@H]3C2)ccc2c1COC2=O` [Example 72], for which the pIC50 at hROMK (hKir1.1) (setting [1]) is 6.82; on Kir1.1 (ROMK1) (setting [2]), 6.80.
The matching figures for `Cc1c([C@@H]2CN3CCN(CC(O)c4ccc5c(c4C4CC4)COC5=O)C[C@H]3CO2)ccc2c1COC2=O` (single isomer, unassigned) [Example 51]: 6.40 and 6.64.
As for `Cc1cc2c(cc1C(O)CN1CCN3C[C@H](c4ccc(F)c(C#N)c4C)OC[C@@H]3C1)COC2=O` (single isomer, unassigned) [Example 27, trifluoroacetate], the pIC50 on hROMK (hKir1.1) (setting [3]) is 6.51; on Kir1.1 (ROMK1) (setting [4]), 6.62.
Take `COc1c([C@@H]2CN3CCN(C[C@H](O)c4ccc5c(c4C)COC5=O)C[C@@H]3CO2)ccc(C#N)c1F` [Example 32, (3R,9aR)-3-(4-cyano-3-fluoro-2-methoxyphenyl)-8-[(2R)-2-hydroxy-2-(4-methyl-1-oxo-1,3-dihydro-2-benzofuran-5-yl)ethyl]octahydropyrazino[2,1-c][1,4]oxazin-8-ium chloride]: the values for the pIC50 at hROMK (hKir1.1) (setting [1]) and at Kir1.1 (ROMK1) (setting [2]) were 6.55 and 6.74, respectively.
For the compound `Cc1cc2c(cc1C(O)CN1CCN3C[C@@H](c4ccc5c(c4C)COC5=O)OC[C@@H]3C1)COC2=O` (single isomer, unassigned) [Example 42], the pIC50 at hROMK (hKir1.1) (setting [1]) was 6.66; at Kir1.1 (ROMK1) (setting [2]), 7.10.
The matching figures for `Cc1c([C@H]2CN3CCN(CCc4ccc5c(c4)COC5=O)C[C@H]3CN2)ccc(F)c1C#N` [Example 104]: 6.96 and 6.40.
On to `COc1cc([C@H]2CN3CCN(C[C@H](O)c4ccc5c(c4C)COC5=O)C[C@@H]3CO2)ccc1C#N` [Example 1, 4-{(3S,9aR)-8-[(2R)-2-hydroxy-2-(4-methyl-1-oxo-1,3-dihydro-2-benzofuran-5-yl)ethyl]octahydropyrazino[2,1-c][1,4]oxazin-3-yl}-2-methoxybenzonitrile], for which the results for the pIC50 at hROMK (hKir1.1) (setting [1]) and on Kir1.1 (ROMK1) (setting [2]) were 6.66 and 6.96, respectively.
The matching figures for `COc1cc(CCN2CCN3C[C@@H](c4ccc5c(c4C)COC5=O)NC[C@@H]3C2)ccc1C#N` [Example 101, 2-Methoxy-4-(2-((7R,9aR)-7-(4-methyl-1-oxo-1,3-dihydroisobenzofuran-5-yl)hexahydro-1H-pyrazino[1,2-a]pyrazin-2(6H)-yl)ethyl)benzonitrile]: 6.68 and 7.00.
Regarding `Cc1c([C@@H](O)CN2CCN3C[C@@H](c4cc(F)c(C#N)c(F)c4)OC[C@@H]3C2)ccc2c1COC2=O` [Example 52, (3R,9aS)-3-(4-cyano-3,5-difluorophenyl)-8-[(2R)-2-hydroxy-2-(4-methyl-1-oxo-1,3-dihydro-2-benzofuran-5-yl)ethyl]octahydropyrazino[2,1-c][1,4]oxazin-8-ium chloride], the values for the negative-log IC50 (pIC50) at hROMK (hKir1.1) (setting [1]) and on Kir1.1 (ROMK1) (setting [2]) were 6.39 and 7.00, respectively.
For `Cc1c([C@@H]2CN3CCN(CCc4ccc5c(c4)C[C@H](C)OC5=O)C[C@H]3CO2)ccc(F)c1C#N` [Example 88], the pIC50 on hROMK (hKir1.1) (setting [1]) was 6.72; at Kir1.1 (ROMK1) (setting [2]), 7.30.
Regarding `Cc1cc(-n2cnnn2)ncc1C(O)CN1CCN2C[C@@H](c3ccc(F)c(C#N)c3C)OC[C@@H]2C1` (single isomer, unassigned) [Example 20], the pIC50 at hROMK (hKir1.1) (setting [1]) is 6.52; against Kir1.1 (ROMK1) (setting [4]), 6.62.
Regarding `Cc1c([C@@H](O)CN2CCN3C[C@@H](c4ccc5c(c4)COC5=O)OC[C@@H]3C2)ccc2c1COC2=O` [Example 11, (3R,9aS)-8-[(2R)-2-hydroxy-2-(4-methyl-1-oxo-1,3-dihydro-2-benzofuran-5-yl)ethyl]-3-(1-oxo-1,3-dihydro-2-benzofuran-5-yl)octahydropyrazino[2,1-c][1,4]oxazin-5-ium trifluoroacetatep], the pIC50 at hROMK (hKir1.1) (setting [1]) was 6.44; on Kir1.1 (ROMK1) (setting [2]), 7.22.
The matching figures for `Cc1c([C@@H]2CN3CCN(CCc4ccc5c(c4)C[C@H](C)OC5=O)C[C@H]3CO2)ccc2c1COC2=O` [Example 86]: 7.10 and 7.10.
In the same order, the values of `Cc1c([C@@H]2CN3CCN(CC(O)c4ccc5c(c4)C[C@H](C)OC5=O)C[C@H]3CO2)ccc2c1COC2=O` (single isomer, unassigned) [Example 45] are 6.33 and 6.92.
In the same order, the values of `COc1cc(C(O)CN2CCN3C[C@@H](c4ccc5c(c4C)COC5=O)OC[C@@H]3C2)cc(F)c1C#N` (single isomer, unassigned) [Example 54] are 6.47 and 6.77.
In the case of `O=C1OCc2cc(CCN3CCN4C[C@H](c5ccc6c(c5)COC6=O)OC[C@@H]4C3)ccc21` [Example 63], the pIC50 on hROMK (hKir1.1) (setting [1]) is 6.64; at Kir1.1 (ROMK1) (setting [2]), 7.40.
Regarding `COc1cc([C@H]2CN3CCN(CC(O)c4ccc5c(c4C)COC5=O)C[C@H]3CO2)ccc1C#N` (stereo partly drawn) [Example 4, (3S,9aS)-3-(4-cyano-3-methoxyphenyl)-8-[2-hydroxy-2-(4-methyl-1-oxo-1,3-dihydro-2-benzofuran-5-yl)ethyl]octahydropyrazino[2,1-c][1,4]oxazin-5-ium chloride], the pIC50 is 6.37 on hROMK (hKir1.1) (setting [1]) and 7.10 on Kir1.1 (ROMK1) (setting [2]).
On to `Cc1c([C@H](O)CN2CCN3C[C@@H](c4ccc5c(c4C)COC5=O)OC[C@@H]3C2)ccc2c1COC2=O` [Example 2, 5-((S)-1-hydroxy-2-((3R,9aS)-3-(4-methyl-1-oxo-1,3-dihydroisobenzofuran-5-yl)hexahydropyrazino[2,1-c][1,4]oxazin-8(1H)-yl)ethyl)-4-methylisobenzofuran-1(3H)-one], for which the pIC50 on hROMK (hKir1.1) (setting [1]) was 6.64; on Kir1.1 (ROMK1) (setting [2]), 7.10.
